In article PMC10673615, “Quercetin-1,2,3-Triazole Hybrids as Multifunctional Anti-Alzheimer’s Agents” (Molecules, 2023):

Legend:
[1] = molecular target: T1, eeAChE (Electrophorus electricus, UniProt O42275); assay: Ellman cholinesterase inhibitory assay, eeAChE screening; format: biochemical; settings: compound 100 µM; substrate 3 mM
T1 construct: catalogue number not given
Experimental: (§1) Firstly, the inhibitory activity of the quercetin-1,2,3-triazole hybrids I–IV was screened in vitro on eeAChE and eqBuChE at a concentration of 100 μM (these enzymes are considered as models of the human isoform). The ChE inhibitory activity of all compounds was evaluated using the method of Ellman.
(§2) The inhibitory activities of title compounds against commercially available cholinesterases (eeAChE) (Electrophorus electricus, Type V-S), eqBuChE (equine serum), were conducted using minor modifications of Ellman’s assay. Nine different concentrations ([…], 37.5, 75, 150, and 300 μM in H2O:DMSO (50:50)) of each test compound were used to determine the enzyme-inhibition activity. Briefly, 55 μL of 50 mM Tris-HCl buffer at pH 8, 25 μL of eqBuChE (0.03 U/mL), 20 μL of the test or standard compounds, and 125 μL of DTNB (0.8 mM) were incubated in 96-well plates at 37 °C for 15 min. Further, 25 μL of the substrate, BTCI (0.8 mM), was added, and the solution was incubated for additional 15 min. Finally, the absorbance was measured at 412 nm wavelength using a Microplate Spectrophotometry (TriStar® S LB 942 model instrument). The IC50 values were determined from the absorbance obtained for various concentrations of the test and the standard compounds. All determinations were performed in triplicate.
(§3) To determine the % of inhibition ([I] = 100 μM), the substrate concentration (acetylthiocholine iodide for AChE; S-butyrylthiocholine iodide for BuChE) was fixed at 3 mM.

[2] = molecular target: T2, eqBuChE (Equus caballus, UniProt P81908); assay: Ellman cholinesterase inhibitory assay, eqBuChE (screening and IC50); format: biochemical
T2 construct: equine serum butyrylcholinesterase (eqBuChE); purchased Sigma-Aldrich (lyophilized powder, 10.9 U/mg); host or cells: equine serum
T2 sequence (P81908 whole entry): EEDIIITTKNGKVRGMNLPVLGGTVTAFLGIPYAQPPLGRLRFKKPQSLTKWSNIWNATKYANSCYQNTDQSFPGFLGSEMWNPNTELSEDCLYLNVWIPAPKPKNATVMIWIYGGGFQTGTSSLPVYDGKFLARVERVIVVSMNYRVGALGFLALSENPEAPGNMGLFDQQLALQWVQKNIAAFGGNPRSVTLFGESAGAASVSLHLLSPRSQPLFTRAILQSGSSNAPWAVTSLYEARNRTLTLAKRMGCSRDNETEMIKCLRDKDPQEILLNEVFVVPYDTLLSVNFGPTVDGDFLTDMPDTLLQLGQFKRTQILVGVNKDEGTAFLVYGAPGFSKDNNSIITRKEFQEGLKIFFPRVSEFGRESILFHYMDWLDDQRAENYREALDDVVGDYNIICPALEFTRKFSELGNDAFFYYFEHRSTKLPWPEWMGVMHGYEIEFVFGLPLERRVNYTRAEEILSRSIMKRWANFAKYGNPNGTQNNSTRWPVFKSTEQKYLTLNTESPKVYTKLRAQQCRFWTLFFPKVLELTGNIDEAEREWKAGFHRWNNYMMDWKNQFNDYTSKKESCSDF
Experimental: as §1, §2, §3

[3] = molecular target: T2, eqBuChE; assay: Kinetic study for the inhibition of eqBuChE (Lineweaver-Burk); format: biochemical
From the text: The interaction with the active center of the enzyme thus seems to be favored by the presence of polar groups. Hybrid IIf presented the smaller Ki (Table 3), binding to the enzyme with the higher affinity, which can be relevant for pharmacologic applications in the future.
Lineweaver–Burk plot (1/V vs. 1/[BTCI]) was used for determining the inhibition constants (Ki’s) and the mechanism of action.

[4] = DPPH radical scavenging antioxidant assay; settings: 100 μg/mL
Experimental: To assess the antioxidant activity of hybrids IVa–e, IIf and quercetin, the 2,2-diphenyl-1-[…] (DPPH) radical scavenging colorimetric method was used, which is one of the most widely used methods for determining antioxidant activity. In this method, antioxidants react with DPPH (which has a strong violet color) and convert it into yellow diphenylpicrylhydrazine. Compounds were assayed in the range of concentrations from 3 to 200 μg/mL. Ascorbic acid was used as positive control. […] Another piece of evidence is the similarity between the % inhibition values of hybrids IVa,b and IVd,e and quercetin.
The colorimetric DPPH assay was carried out as described in [33]. […] In brief, 30 μL of a test compound (in MeOH) was mixed with 200 μL of DPPH (100 μM in methanol) in a 96-well plate in triplicate. After 30 min incubation at room temperature in the absence of light, the absorbances were measured at 517 nm using Microplate Spectrophotometry (TriStar® S LB 942 model instrument). The free radical scavenging activity results are expressed as a percentage of DPPH inhibition according to the following formula:
% of Inhibition = 100[(A(Blank) − A(sample))/A(blank)], where A(blank) consists of methanol (30 μL) mixed with DPPH (200 μL) absorbance, and A(sample) is the absorbance value for the added sample concentration compound mixed with DPPH. Ascorbic acid was used as a positive control.

[5] = in vitro; settings: human
Experimental: (§4) Given the importance of oxidative stress-induced apoptosis of neuronal cells in AD, we present here a study to investigate the effect of quercetin-1,2,3-triazole hybrids on H2O2-induced oxidative damage in cultured MCF-7 cells, used as a human cell model. Viability was assessed with the WST-1 test in the absence and in the presence of an oxidative stressor (10^−4 M H2O2).
(§5) MCF-7 (Human breast adenocarcinoma (MERCK—# 86012803-DNA-5UG), Database Name: ECACC collection, Accession Numbers: 86012803) was the cell line elected as a cell injury model for the study of the potential protective effect of the butyrylcholinesterase inhibitors (hybrids) against hydrogen peroxide-induced oxidative stress. Cytotoxicity of the hybrids was also evaluated.
The compounds to be tested were firstly dissolved in dimethyl sulfoxide (DMSO) at a concentration of 4 × 10^−2 M. They were then diluted in cell growth media (EMEM) (supplemented with FBS 10%) with 0.25% DMSO to obtain solutions between 6.25 and 50.00 µM.
Eagle’s Minimum Essentia Medium (EMEM), including 10% fetal bovine serum (FBS), 100 IU/mL penicillin, and 100 μg/mL streptomycin, was used to culture MCF-7 cells at 37 °C in 5% CO2 atmosphere incubator with media replenished every 2 days. A total of 5 × 10^3 cells were cultured in 96-well plates and incubated for 72 h prior to stimulus application.
(§6) The culture medium was subsequently replaced with different final concentrations (6.25–50 μM) of the compounds to be tested. Negative controls were prepared, incubating cells in culture media.
(§7) Parallel experiments were performed for cytotoxicity assessment and for protective effect against hydrogen peroxide-induced oxidative stress evaluation. First, 10 μL of PBS was added in the designated wells; second, 10 μL of H2O2 (reaching a final concentration of 100 µM) was added. Following a 2 h incubation period at 37 °C in 5% CO2 atmosphere incubator, cellular viability was measured by adding WST-1 dehydrogenases substrate and incubating for 1 h, and the amount of formazan dye produced was evaluated by measuring the absorbance at 440 nm.

[6] = test system: MCF-7 cells; assay: Protective assay against hydrogen peroxide-induced oxidative stress in MCF-7 cells; format: cell-based, Human; settings: 100 µM H2O2, 2 h
Experimental: as §4, §5, §6, §7

[7] = Artemia salina lethal toxicity assay; format: in vivo; settings: Artemia salina, in vivo, other: grown in the presence of the compound, Artemia salina nauplii
Experimental: (§8) Artemia salina was used for in vivo general toxicity assessment of the promising hybrids IVb, IVd, and IIf; the results are shown in Table 4 and Figure 7. K2Cr2O7 was used as a control. Hybrid IVd presented the lowest toxicity.
(§9) The ARTOXKIT M protocol was used. The percentage of dyed nauplii of Artemia salina, grown in the presence of variable concentrations of the inhibitor compounds, was measured to determine the LC50 values. A test with K2Cr2O7 was used for quality control.

[8] = test system: Artemia salina; assay: Artemia salina lethal toxicity assay; format: in vivo; settings: Artemia salina nauplii; read-out: LC50
Experimental: as §8, §9

T1 sequence (O42275 24-633): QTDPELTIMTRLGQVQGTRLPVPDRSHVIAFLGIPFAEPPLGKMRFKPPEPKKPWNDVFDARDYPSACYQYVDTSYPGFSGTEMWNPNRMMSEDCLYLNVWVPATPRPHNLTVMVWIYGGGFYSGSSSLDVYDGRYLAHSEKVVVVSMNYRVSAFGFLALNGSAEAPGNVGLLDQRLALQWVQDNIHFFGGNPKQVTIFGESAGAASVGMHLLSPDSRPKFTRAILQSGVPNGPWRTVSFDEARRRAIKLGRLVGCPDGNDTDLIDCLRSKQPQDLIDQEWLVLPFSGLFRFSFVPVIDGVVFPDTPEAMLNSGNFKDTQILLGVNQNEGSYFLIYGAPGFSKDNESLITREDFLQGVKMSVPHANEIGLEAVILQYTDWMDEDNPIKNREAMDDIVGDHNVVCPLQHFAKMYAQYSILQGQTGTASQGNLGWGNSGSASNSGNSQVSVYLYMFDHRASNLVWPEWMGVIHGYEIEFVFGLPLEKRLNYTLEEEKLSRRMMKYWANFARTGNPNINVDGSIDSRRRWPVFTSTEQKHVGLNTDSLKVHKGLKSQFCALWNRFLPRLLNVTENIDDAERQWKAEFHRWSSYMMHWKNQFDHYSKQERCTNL

CC(C)(O)c1cn(CCCCOc2c(-c3ccc(O)c(O)c3)oc3cc(O)cc(O)c3c2=O)nn1 [IVd, 2-(3,4-Dihydroxyphenyl)-5,7-dihydroxy-3-(4-(4-(2-hydroxypropan-2-yl)-1H-1,2,3-triazol-1-yl)butoxy)-4H-chromen-4-one]
inhibition at 100 µM [1]: 3.65%
inhibition at 100 µM ([2]; compound 100 µM, substrate 3 mM): 56.6%
IC50 ([2]; concentration range 1.2-300 µM, BTCI 0.8 mM, read-out: IC50 values for eqBuChE): 39 µM
Inhibition type ([3]; Lineweaver-Burk): competitive inhibition
Ki ([3]; Lineweaver-Burk, read-out: Ki (inhibitory constant)): 36 µM
Vmax app ([3]; inhibitor 17.5 µM): 9.6 U.mg^−1
Vmax app ([3]; inhibitor 35 µM): 9.0 U.mg^−1
DPPH antioxidant activity [4]: potent antioxidant activity
EC50 at 2 h [5]: > 50 µM
cellular antioxidant protection against H2O2 [6]: equally effective in the antioxidant protection
LC50 [7]: > 100 µM
LC50 [8]: ≥ 100 µM
